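Values below derive from 48-hour exposures of cells grown in 96-well plates, with endpoints linearly interpolated between the two concentrations bracketing the appropriate inhibition level. The concentration for 50% growth inhibition is given as GI50. At the TGI there is no net growth.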

Test systems include COLO 205 colon; EKVX NSCLC; IGROV1 ovarian; K-562 leukemia; M14 melanoma; OVCAR-4 ovarian; SNB-19 CNS; SNB-75 CNS; SW-620 colon; UACC-62 melanoma.
Experiment in all cases: inhibition of tumour cell growth, NCI panel, 48 h

Take `O=Nc1c2cccnc2n2nnc3ccc(Cl)cc3c12`: the GI50 is 1.32 µM with COLO 205 colon; 3.59 µM in the experiment with EKVX NSCLC; 1.25 µM in the experiment on IGROV1 ovarian; 0.239 µM in the experiment on K-562 leukemia; 2.84 µM in the experiment on M14 melanoma; 0.98 µM in the experiment with OVCAR-4 ovarian. In addition, the GI50 in the experiment on SNB-19 CNS is 5.5 µM; in the experiment on SNB-75 CNS, 3.19 µM; in the experiment with SW-620 colon, 0.331 µM; with UACC-62 melanoma, 3.99 µM. Moreover, the TGI is 5.07 µM in the experiment with COLO 205 colon; 19.6 µM with EKVX NSCLC; 7.69 µM with IGROV1 ovarian; 6.66 µM in the experiment with K-562 leukemia; 8.36 µM with M14 melanoma; 3.86 µM with OVCAR-4 ovarian. Further, the TGI worked out at 22 µM in the experiment with SNB-19 CNS, 11.4 µM in the experiment on SNB-75 CNS, 1.33 µM in the experiment on SW-620 colon and 11.2 µM in the experiment with UACC-62 melanoma.

With `O=C(N=Nc1c(O)[nH]c2ccccc12)c1ccccc1O`, the TGI in the experiment with COLO 205 colon, with EKVX NSCLC, in the experiment on K-562 leukemia, in the experiment on M14 melanoma, in the experiment with OVCAR-4 ovarian and in the experiment with SNB-19 CNS was above 100 µM in each case. Moreover, the TGI with SNB-75 CNS was 94.2 µM; with SW-620 colon, above 100 µM; in the experiment with UACC-62 melanoma, above 100 µM.

As for `CCc1ccc(C2=C(O)C(=O)C(c3ccc(CC)cc3)=C(O)C2=O)cc1`, the GI50 is 1.69 µM in the experiment with COLO 205 colon; 2.35 µM with EKVX NSCLC; 1.59 µM in the experiment with IGROV1 ovarian; 1.34 µM with K-562 leukemia; 1.74 µM in the experiment on M14 melanoma; 2.18 µM in the experiment with OVCAR-4 ovarian. Also, the GI50 in the experiment with SNB-19 CNS was 2.17 µM; with SNB-75 CNS, 1.37 µM; in the experiment on SW-620 colon, 2.87 µM; in the experiment on UACC-62 melanoma it was 1.64 µM. In addition, the TGI with COLO 205 colon was determined as 5.36 µM; with EKVX NSCLC, 8.64 µM; with IGROV1 ovarian, 3.54 µM; in the experiment on K-562 leukemia it was 3.61 µM; in the experiment with M14 melanoma, 4.54 µM; in the experiment on OVCAR-4 ovarian it was 7.75 µM. The TGI with SNB-19 CNS was found to be 8.03 µM; in the experiment on SNB-75 CNS, 4.19 µM; with SW-620 colon, 10.4 µM; in the experiment with UACC-62 melanoma it was 3.63 µM.

For `c1c[nH]c(Cc2ncc(Cc3cnc[nH]3)[nH]2)n1`, the TGI is above 100 µM in the experiment on COLO 205 colon; above 100 µM in the experiment on EKVX NSCLC; 85 µM in the experiment on IGROV1 ovarian; above 100 µM with K-562 leukemia; 36.7 µM in the experiment on M14 melanoma; above 100 µM in the experiment on OVCAR-4 ovarian. Further, the TGI was 84.4 µM in the experiment with SNB-19 CNS, above 100 µM in the experiment with SNB-75 CNS, above 100 µM in the experiment on SW-620 colon and 59.5 µM in the experiment with UACC-62 melanoma.

For the compound `CN(C)CCNc1cccc2sc3ccc(O)cc3c(=O)c12`, the GI50 with COLO 205 colon is 3.92 µM; in the experiment on IGROV1 ovarian, 3.13 µM; in the experiment on K-562 leukemia, 2.4 µM; with M14 melanoma, 1.85 µM; in the experiment on OVCAR-4 ovarian it was 2.75 µM; with SNB-19 CNS, 4.04 µM. Further, the GI50 is 2.33 µM in the experiment with SNB-75 CNS, 1.16 µM in the experiment on SW-620 colon and 1.43 µM in the experiment with UACC-62 melanoma. Further, the TGI in the experiment on COLO 205 colon was 15.3 µM; in the experiment on IGROV1 ovarian it was 12.5 µM; in the experiment with K-562 leukemia, 5.6 µM; with M14 melanoma, 4.33 µM; in the experiment with OVCAR-4 ovarian, 12.3 µM; with SNB-19 CNS, 17.4 µM. The TGI stood at 12.2 µM in the experiment with SNB-75 CNS, 3.44 µM with SW-620 colon and 2.87 µM with UACC-62 melanoma.

On to `COC(=O)c1ccc(OCc2ccc3oc(=O)c(-c4ccccc4)nc3c2)cc1`, for which the TGI in the experiment on COLO 205 colon, in the experiment with EKVX NSCLC, in the experiment on K-562 leukemia, in the experiment with M14 melanoma, in the experiment with OVCAR-4 ovarian and in the experiment on SNB-19 CNS was above 100 µM throughout. Besides, the TGI in the experiment on SNB-75 CNS and in the experiment on SW-620 colon was above 100 µM in each case.

Turning to `O=C(c1ccco1)N(C(=S)N1CCN(c2ccccc2)CC1)c1ccccc1`, the TGI in the experiment on COLO 205 colon, in the experiment with IGROV1 ovarian, in the experiment with K-562 leukemia, in the experiment on M14 melanoma, in the experiment with OVCAR-4 ovarian and with SNB-19 CNS was above 100 µM in each case. The TGI in the experiment on SNB-75 CNS, in the experiment with SW-620 colon and with UACC-62 melanoma was above 100 µM each time.

`CCCCc1cc(O)ccc1O`: the GI50 with COLO 205 colon is 74.6 µM; with EKVX NSCLC, 41.9 µM; in the experiment on IGROV1 ovarian, 32.3 µM; in the experiment on K-562 leukemia, 10.3 µM; in the experiment on OVCAR-4 ovarian it was 13.1 µM; with SNB-19 CNS, 78.5 µM. For the same compound, the GI50 with SNB-75 CNS was 14.1 µM; in the experiment on SW-620 colon, 33.8 µM; with UACC-62 melanoma, 27.7 µM. Also, the TGI is above 100 µM in the experiment on COLO 205 colon; above 100 µM in the experiment with EKVX NSCLC; above 100 µM in the experiment on IGROV1 ovarian; above 100 µM with K-562 leukemia; 26.3 µM with OVCAR-4 ovarian; above 100 µM with SNB-19 CNS. Also, the TGI in the experiment with SNB-75 CNS, with SW-620 colon and in the experiment on UACC-62 melanoma was above 100 µM throughout.

Turning to `CC1(C)OC2C(=O)OC(COCc3ccccc3)C2O1` (centres undefined), the TGI with COLO 205 colon, in the experiment on EKVX NSCLC, in the experiment with IGROV1 ovarian, in the experiment on K-562 leukemia, with M14 melanoma and in the experiment on OVCAR-4 ovarian was above 100 µM in each case. The TGI with SNB-75 CNS, in the experiment on SW-620 colon and in the experiment with UACC-62 melanoma was above 100 µM throughout.

On to `CCC(=O)N1C/C(=C/c2ccc(OC)cc2)C(=O)/C(=C/c2ccc(OC)cc2)C1`, for which the GI50 in the experiment on COLO 205 colon is 1.99 µM; in the experiment with IGROV1 ovarian, 2.21 µM; with K-562 leukemia, 1.19 µM; in the experiment on M14 melanoma, 1.92 µM; in the experiment with OVCAR-4 ovarian it was 3.37 µM; with SNB-19 CNS, 2.93 µM. The GI50 in the experiment on SNB-75 CNS is 5.91 µM; in the experiment on SW-620 colon it was 1.66 µM; with UACC-62 melanoma, 1.6 µM. Moreover, the TGI in the experiment with COLO 205 colon is 3.65 µM; in the experiment with IGROV1 ovarian, 4.93 µM; with K-562 leukemia it was above 100 µM; in the experiment on M14 melanoma, 3.96 µM; in the experiment on OVCAR-4 ovarian, above 100 µM; in the experiment on SNB-19 CNS, 19.3 µM. Further, the values for the TGI with SNB-75 CNS, in the experiment on SW-620 colon and in the experiment on UACC-62 melanoma were above 100 µM, 3.64 µM and 3.01 µM, respectively.

Source of the values: PubChem BioAssay (NCI).
